This passage reports cytotoxicity results from ChEMBL document CHEMBL3507680, “University of Dundee, Gates Library screen for HepG2 cell viability”.

The data set can be described thus: Human HepG2 cell viability assay in 384 well format. It counts as toxicity, cell-based. Also noted: dose 125 nL, time 70.5 hour; concentration not given beside the values. The settings on record: HepG2 cells, read-out: Inhibition.

In the case of `CSc1cccc(CN2CCC(CCC(=O)NC3CC3)CC2)c1`, the cytotoxicity at 70.5 h was -7.44%.
For `CCOc1ccccc1CCN1Cc2ncccc2C1=O`, the cytotoxicity at 70.5 h turned out to be 3.15%.
Then `O=C(C1CC1)N1CCN(C(=O)CSc2ccccn2)[C@H]2CS(=O)(=O)C[C@H]21`, with 24%; and `Cc1cccc(CN2CCC(NS(C)(=O)=O)CC2)n1`, with -8.65%; and `CCOCCC(=O)N1CCCCC1CCn1cccn1` (stereo not drawn), with -6.8%.
`CC(c1nccs1)N(C)Cc1ccc(CCC(C)(C)O)cc1` (stereo not drawn): the cytotoxicity at 70.5 h came to 0.285%.
Then `CN1CCN(S(=O)(=O)N2CCCCC2CCc2ccc(O)cc2)CC1` (stereo not drawn), with -4.09%; and `CCC(=O)c1ccc(OCC(=O)NC(C)Cc2cc(C)n[nH]2)cc1` (stereo not drawn), with -8.59%.
Take `CC(C)Oc1ccccc1-c1cc(CN)ccc1F`: the cytotoxicity at 70.5 h was determined as 5.05%.
Then `Cc1ccc(NC(=O)CNC(C)CN2CCCCC2)c(F)c1` (stereo not drawn), with 6.42%; and `O=C(O)CCc1cc2n(n1)CCN(Cc1ccc3[nH]ccc3c1)C2`, with -2.66%; and `CCn1nc(C)c(CN(CCOC)C(=O)c2ccc(=O)[nH]n2)c1C`, with -4.87%.
Then `c1ccc2c3c([nH]c2c1)CN(Cc1cc2n(n1)CCNC2)CC3`, with 21.1%; and `CN1CCN(C)C2(CCN(Cc3ccc(C4CCCO4)s3)CC2)C1` (stereo not drawn), with -3.28%; and `CCn1cc(Cn2cc(-c3cccc(C(C)N(C)C)c3)nn2)cn1` (stereo not drawn), with -6.09%.
Then `COCCNc1cc(-c2ccccc2C(N)=O)c2cc[nH]c2n1`, with -10.4%; and `Cc1ccccc1N1CCN(C2CCCN(C(=O)CCC(C)C)C2)CC1` (stereo not drawn), with -0.359%; and `COCCN(C)C[C@@H]1CN(C(=O)c2ccc(OC)c(F)c2)C[C@@H]1CO`, with -7.53%.
For `CCN(CCSc1ccccc1)C(=O)c1cn([C@H]2CC[C@@H](N)CC2)nn1`, the cytotoxicity at 70.5 h is -11.7%.
With `NCC1CCCCN1Cc1cc(O)c2cccc(F)c2n1` (stereo not drawn) the figure was 21.6%.
Turning to `CN(C)Cc1nc(C(=O)N2CCCC(COc3ccc(F)cc3)C2)cs1` (stereo not drawn), the cytotoxicity at 70.5 h was -7.27%.
With `CCN1CCC(CC(=O)NC[C@H]2CCc3ccccc3O2)CC1` the figure was -8.77%; with `CC1CCc2n[nH]c(C(=O)N3CCc4c(nc(N(C)C)[nH]c4=O)C3)c2C1` (stereo not drawn), -13.8%.
With `Cc1nn(CC(=O)N(C)Cc2nncn2C(C)C)c(=O)c2ccccc12` the figure was -9.91%.
Regarding `N[C@H]1CC[C@@H](n2cc(C(=O)N[C@H]3CCCc4ccccc43)nn2)CC1`, the cytotoxicity at 70.5 h was -10.4%.
Then `COc1ccc(CCNCc2ccco2)cc1OC`, with -6.05%; and `Cc1cccc(CN(C(=O)CS(C)(=O)=O)C(C)C)c1`, with -2.96%; and `Cc1cc(C(=O)NCc2cccnc2N2CCCC(O)C2)c(C)o1` (stereo not drawn), with -8.63%.
Then `CN(CCCc1cnn(C)c1)C(=O)Nc1cccc2[nH]ncc12`, with -15.7%; and `CN(C)S(=O)(=O)N1CC[C@]2(O)CCN(Cc3cccc(F)c3)C[C@@H]2C1`, with -6.74%; and `Cc1c[nH]c(CN(C)C(=O)C(C)(C)NC(=O)c2cccs2)n1`, with -19.9%.
As to `O=C(O)C1(Cc2ccc(Cl)cc2)CCN(c2ncccc2F)CC1`, the cytotoxicity at 70.5 h is -4.45%.
Then `CCCn1c(C)c(CC(=O)NCCNC(C)=O)c2c1CC(C)(C)CC2=O`, with 1.34%; and `Cc1c(C(=O)N2CCC(O)(CN(C)C)C2)c2cc(O)ccc2n1C` (stereo not drawn), with -9.59%; and `CSCCc1nc(C(C)C)nn1-c1ccncc1C`, with -12.8%.
Then `Cc1cc(NCCc2nnc(N)s2)nc(-c2cccnc2)n1`, with -6%.
`CCCN1CCC(Cc2noc(-c3cccnc3OC)n2)CC1`: the cytotoxicity at 70.5 h was found to be 2.25%.
Then `O=C(c1cnc(O)cn1)N1C[C@@H]2CC[C@H](C1)N(Cc1ccccc1)C2`, with -0.665%; and `Cc1cc(CNC(=O)CCCN2CCCCC2)n(C)n1`, with 12.2%.
For the compound `Cc1cc(C)cc(N2CCN(C(=O)C3CN(C)C(=O)N3)CC2=O)c1` (stereo not drawn), the cytotoxicity at 70.5 h is -9.45%.
Then `CC(NC(=O)c1cccc(CCC(C)(C)O)c1)c1nnc(N)s1` (stereo not drawn), with 30.7%; and `Cn1c(C2CCCN2C(=O)c2cn(CCN)nn2)nc2ccccc21` (stereo not drawn), with -15.7%.
With `O=C(CCN1CCCC(CO)(CC2CC2)C1)NCc1cccc(Cl)c1` (stereo not drawn) the figure was -7.94%; with `Cc1ccc(C2(O)CCN(Cc3nc(C)n4ccccc34)CC2)nc1`, -9.79%; with `CCn1c(Cn2cncn2)nnc1C1CCN(Cc2ccccn2)CC1`, 6.14%.
With `CCCc1n[nH]c(=O)n1[C@@H](CC)c1ccccc1` the figure was -10.8%; with `Oc1ccc(-c2c(-c3ccccc3)ncn2C[C@H]2CCCN2)cc1`, -2.17%; with `CCCn1cc(C(=O)NC(C(=O)O)c2ccccc2C(F)(F)F)c(C)n1` (stereo not drawn), -8.7%.
For `Cc1nsc(NC(=O)N2CCN(Cc3ccccc3F)C(=O)C2)n1`, the cytotoxicity at 70.5 h is -8.72%.
Then `Cc1cc(C)nc(NC(C)Cc2cnccn2)n1` (stereo not drawn), with -14%.
Then `CCCn1ccnc1CN1CCCC1c1ccccn1` (stereo not drawn), with -4.45%.
On to `CN(C)[C@H]1CCN(c2nc(C(C)(C)C)nc3c2cnn3C)C1`, for which the cytotoxicity at 70.5 h stood at 27.9%.
As to `Cc1[nH]c(=O)[nH]c(=O)c1CN1CCCC(CCc2ccc(F)cc2F)C1` (stereo not drawn), the cytotoxicity at 70.5 h is -9.69%.
Then `COc1ccccc1OC1CN(C(=O)c2c(C)nc3ccc(C)cn23)C1`, with -1.56%; and `CC(C)(C)c1cc(CN2CCOC(CCc3ccccc3)C2)n[nH]1` (stereo not drawn), with -9.92%; and `COc1cccn(Cc2nnc(-c3cccnc3)o2)c1=O`, with -1.16%.
For the compound `CC(C)N1CCCC(C(=O)NC(C)(C)c2nnc(N)s2)C1` (stereo not drawn), the cytotoxicity at 70.5 h was -12.2%.
With `CCc1c(C)nn(CCNC(=O)c2cc(C3CC3)n[nH]2)c1C` the figure was -2.41%; with `CO[C@H]1C[C@@H](O)C12CCN(C(=O)CCSCc1ccc(F)cc1)CC2`, -18.7%; with `CC(=O)NCCNC(=O)c1cc(COc2ccccc2)[nH]n1`, 1.84%.
Take `CN(CCc1ccccn1)C(=O)c1cn(CCN2CCNCC2)nn1`: the cytotoxicity at 70.5 h is -10.7%.
As for `COC(=O)NCC(=O)N(C)Cc1csc(-c2cccs2)n1`, the cytotoxicity at 70.5 h turned out to be 3.35%.
`Cc1ccsc1CN(CCN(C)C)C(=O)c1cc2ccccc2[nH]1`: the cytotoxicity at 70.5 h came to 4.92%.
With `c1ccc2c(c1)nnn2CCCNC1CCOC2(CCOCC2)C1` (stereo not drawn) the figure was -5%.
`CCCc1cc(C(=O)N(Cc2cccnc2)C2CCCCC2)[nH]n1`: the cytotoxicity at 70.5 h was -7.56%.
For `CCC(CO)(CO)NC(=O)C1CCC(=O)N(CCc2ccccc2)C1` (stereo not drawn), the cytotoxicity at 70.5 h was -10.4%.
Then `CCC(O)c1nc2c([nH]1)CC(C)(C)CNC2=O` (stereo not drawn), with 13%; and `CCN(CC)Cc1cc(C(=O)N2CCCC(O)(CO)C2)c(C)o1` (stereo not drawn), with -7.27%; and `O=S1(=O)CCC(n2cc(C3=CCN(CCn4cccc4)CC3)cn2)C1` (stereo not drawn), with 26.8%.
Turning to `Cc1ccc(C)c2c(O)cc(CN3CCNC(=O)C3C)nc12` (stereo not drawn), the cytotoxicity at 70.5 h was -8.28%.
For the compound `CN(CC1CCCCO1)c1nc(-c2cccnc2)nc2c1CCNC2` (stereo not drawn), the cytotoxicity at 70.5 h was -17.5%.
As to `CC(CN1CCOCC1)NC1CCN(Cc2cccc(O)c2)CC1` (stereo not drawn), the cytotoxicity at 70.5 h was -8.8%.
Then `CCCN1CCC(Cc2nn3c(C(C)C)nnc3s2)CC1`, with 10.4%.
For the compound `CC(C)c1nnc(NCc2cc3n(n2)CCN(C2CCCCC2)C3)s1`, the cytotoxicity at 70.5 h is -0.516%.
As to `Cc1ccsc1CN1CC2(CCN(C(=O)C3CC3)CC2)CC1C(=O)O` (stereo not drawn), the cytotoxicity at 70.5 h is 10.8%.
As for `Cc1nn(C)c(Oc2ccc(Cl)cc2)c1CN1CCC(CN)C1` (stereo not drawn), the cytotoxicity at 70.5 h was -8.55%.
With `CCCN(Cc1nccn1C)C(=O)c1cnn[nH]1` the figure was 7.26%.
With `CCCc1nnc(N[C@H](C)c2ccc(OC)cc2)o1` the figure was -10.6%.
With `O=C(C1CCC1)N1CCC(C2CCN(Cc3ccc(Cl)cc3)C2)CC1` (stereo not drawn) the figure was -3.08%; with `Cc1nc(C)n(CCNS(=O)(=O)NCc2ccccc2)n1`, -15.5%.
As for `COc1cc(C)ccc1OCc1nc(C(=O)N2CCCO2)co1`, the cytotoxicity at 70.5 h was found to be 10.4%.
With `CCc1cnc(NCC(CC)N2CCOCC2)nc1` (stereo not drawn) the figure was -6.68%; with `CCC[C@H]1CN(CCS(C)(=O)=O)C[C@@H]1NC(=O)c1ccccc1F`, -2.49%; with `COc1cc(C2CC(=O)Nc3c2nc2n3CCCC2)ccc1O` (stereo not drawn), -7.4%.
Consider `CCC(CO)N(Cc1cccnc1)Cc1ccc(-c2ccn[nH]2)s1` (stereo not drawn), for which the cytotoxicity at 70.5 h was -7.15%.
Then `Cn1ccn2ncc(C(=O)NCc3cccnc3N3CCCC(O)C3)c12` (stereo not drawn), with -18.3%; and `CN(Cc1ccon1)CC1CCOc2ccccc2C1` (stereo not drawn), with -8.84%.
`CS(=O)(=O)N1CCC(Oc2ccc(C(=O)NC3CCCC3)cc2Cl)CC1`: the cytotoxicity at 70.5 h was -7.15%.
In the case of `Cn1ccnc1CN1CCN(CC2CC2)[C@@H]2CS(=O)(=O)C[C@@H]21`, the cytotoxicity at 70.5 h is -7.65%.
Then `CC(c1cccs1)N(C)C(=O)c1cc(CN(C)Cc2ccccc2)on1` (stereo not drawn), with -4.76%; and `O=C(Cc1c[nH]c2ccccc12)NCC1CCN(Cc2c[nH]cn2)C1` (stereo not drawn), with -6.01%; and `Cc1cc(CN2CC3(CCN(C(=O)C4CC4)CC3)CC2C(=O)O)oc1C` (stereo not drawn), with -7.26%.
Then `O=C(NC1CCCNC1)c1cc(COc2cccc(C(F)(F)F)c2)[nH]n1` (stereo not drawn), with -0.657%; and `Cc1ccccc1-n1cc(-c2ccnc(N[C@@H](CO)C(C)C)n2)cn1`, with -7.32%; and `CCCn1ncc(C(=O)NCCc2[nH]nc3c2CCCC3)c1C`, with -5.62%.
Then `C[C@@H]1CN(C2CCCCC2)CC[C@@]1(O)C1CCOCC1`, with -16%; and `O=C1NCC2(CCCN(Cc3ccccc3OCCO)C2)O1` (stereo not drawn), with -8.84%.
For `CCC(CO)N(Cc1ccccn1)C(=O)c1ncccc1C` (stereo not drawn), the cytotoxicity at 70.5 h came out at 15.2%.
